Drawing on BindingDB's records for doi:10.1021/jm0009437 (Institut Curie, 2000), this text covers IC50 for three compounds.

By IC50 is commonly meant the concentration needed to halve the response being measured. The low end stands for higher potency, the high end for lower potency.

In this assay the target is T1, Gag-Pol polyprotein [588-1027]/[588-1147] (Human immunodeficiency virus 1, UniProt P04585).
T1 construct: 588-1027; 588-1147
Briefly: HIV-1 RT Assay. To be noted: pH 8; 37 °C.
On to `CCc1c(C)nc(O)c(N)c1C(=O)c1cc(C)cc(C)c1` [3-amino-4-[(3,5-dimethylphenyl)carbonyl]-5-ethyl-6-methyl-1,2-dihydropyridin-2-one], for which the IC50 is 100 nM.

On to `CCc1c(C)nc(O)c(N)c1Cc1cc(C)cc(C)c1` [3-amino-4-[(3,5-dimethylphenyl)methyl]-5-ethyl-6-methyl-1,2-dihydropyridin-2-one], for which the IC50 is 100 nM. The same measure for `CCc1c(C)[nH]c(=O)c([N+](=O)[O-])c1Sc1cc(C)cc(C)c1` [4-[(3,5-dimethylphenyl)sulfanyl]-5-ethyl-6-methyl-3-nitro-1,2-dihydropyridin-2-one]: 30 nM.
